From US20170240522A1, “BENZOTHIOPHENE, BENZYLOXYBENZYLIDENE AND INDOLINE DERIVATIVES USEFUL FOR THE TREATMENT OF TUBERCULOSIS” (priority 2014, published 2017)
Read-outs that look alike come from different tables or passages of the source.

What was measured:
MprB = target: T1, MprB (Mycobacterium tuberculosis, UniProt P9WGL1); assay: MprB autophosphorylation assay; format: biochemical
T1 construct: MprB lacking its N-terminal transmembrane domain was incubated with [γ-32P]ATP; His6; made in house; host or cells: E. coli BL21 (DE3), vector pQE80L
T1 sequence (P9WGL1 185-504 limits assumed): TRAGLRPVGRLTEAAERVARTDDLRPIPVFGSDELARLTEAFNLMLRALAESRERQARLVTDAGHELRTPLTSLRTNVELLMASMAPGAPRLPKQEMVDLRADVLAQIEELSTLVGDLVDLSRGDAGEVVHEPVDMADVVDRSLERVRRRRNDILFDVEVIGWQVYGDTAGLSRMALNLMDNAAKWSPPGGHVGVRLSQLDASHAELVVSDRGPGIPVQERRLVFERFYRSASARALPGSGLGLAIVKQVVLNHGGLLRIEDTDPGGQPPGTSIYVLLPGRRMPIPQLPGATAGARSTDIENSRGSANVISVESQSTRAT

ATP-levels of Mtb = assay: Quantification of intracellular ATP levels; format: cell-based, Mycobacterium tuberculosis; details: 10 μM, 24 hours
Description: (§1) Bacteria were grown for 24 hours in the presence of test compounds. The BacTiter-Glo microbial cell viability reagent (Promega) was used for the quantification of ATP according to the recommendations of the manufacturer. For EtBr uptake assays, bacteria were washed with PBS containing 0.05% Tween 80, OD600 was adjusted to 0.4 and 100 μl were pipetted into black 96 well plates. EtBr was added (4 μM final concentration) and fluorescence was read every 2 min. at 545/600 nm. Unpaired Student's T-tests were used for statistical analyses.

[1] = system: mycobacterial outer membrane permeability; assay: Ethidium bromide (EtBr) uptake assay; format: cell-based, Mycobacterium tuberculosis; details: 10 μM
Description: as §1
To investigate whether BBH7 alters mycobacterial outer membrane permeability, which might explain the transcriptomic pattern associated with metal-ion toxicity, the Applicant performed ethidium bromide (EtBr) uptake assays after treatment with the compounds of interest. These assays identify altered outer membrane permeability by an increase of fluorescence after binding of EtBr to bacterial nucleic acids. […] This was not observed with BTP15.

[2] = system: Mtb expressing GFP in infected fibroblasts; format: cell-based, Mycobacterium tuberculosis; details: compound concentration 5 μM (FIG. 2D)
MRC-5 lung fibroblasts = assay: Fibroblast survival assay (FSA); format: cell-based; details: Homo sapiens, MRC5; read-out: IC50 of protection of fibroblasts
ESX-1 = ESX-1 inhibitory activity of inhibitors of mycobacterium virulence (Table VII); format: cell-based, Mycobacterium tuberculosis
Mtb transcriptome = assay: RNA-seq and qRT-PCR of compound-treated Mtb; format: cell-based, Mycobacterium tuberculosis
Description: For the transcriptomic studies, bacteria were grown under the same conditions as for protein secretion assays. Drug exposure time was 8 hours with 5 μM of compound for RNA-seq experiments and confirmatory qRT-PCR. RNA was extracted with Trizol (Invitrogen) and treated with DNase I (Roche) prior to library preparation or generation of the cDNA template. cDNA was synthesized using the RevertAid First Strand cDNA Synthesis Kit (Fermentas) using random hexamer primer. cDNA corresponding to 10 ng of input RNA was used in each RT-PCR reaction supplemented with specific primer pairs (200 nM each) listed in Table S4 and SYBR-Green master mix (Applied Biosystems). Quantitative RT-PCR reactions were performed with the 7900HT Fast Real-Time PCR System (Applied Biosystems) with the following parameters: 50° C. for 2 min, 95° C. for 10 min, followed by 40 cycles of 95° C. for 15 s and 60° C. for 60 s. Melt curve analysis was used to confirm specific amplification for each primer pair. Unpaired Student's T-tests were used for statistical analyses.
For the RNA-seq library preparation 100 ng of total RNA were used in the TruSeq Stranded mRNA LT kit, according to the instructions provided by the manufacturer (Illumina). A small aliquot was analyzed on Qubit and Fragment Analyzer prior to sequencing on Illumina HiSeq using the TruSeq SR Cluster Generation Kit v3 and TruSeq SBS Kit v3. Data were processed with the Illumina Pipeline Software v1.82. RNA-seq data were deposited in the Gene Expression Omnibus (GEO) server at the National Center for Biotechnology Information (NCBI).
• All analyses in this study were carried out using the M. tuberculosis H37Rv annotation from the TubercuList database (http://tuberculist.epfl.ch/) (Lew et al., 2011). There are 4019 protein coding sequences (CDS) currently annotated in the genome, 73 genes encoding for stable RNAs, small RNAs and tRNAs. In order to quantify protein occupancy and transcription across the entire genome, 3080 intergenic regions (regions flanked by two non-overlapping CDS) were included, resulting in a total of 7172 features. • The single-ended sequence reads generated from RNA-seq experiments were aligned to the M. tuberculosis H37Rv genome (NCBI accession NC_000962.2) using Bowtie2 with default parameters (Langmead and Salzberg, 2012). Read counts for all annotated features were obtained with the htseq-count program (http://www.huber.embl.de/users/anders/HTSeq/doc/count.html). Regions where genes overlapped were excluded from counting. Reads spanning more than one feature were counted for each feature. Since the RNA library was strand-specific, the orientation of sequence reads had to correspond to the orientation of annotated features to be counted. Analysis of differential gene expression was carried out using the DESeq package (Anders and Huber, 2010).

[3] = system: several other mycobacteria and non-mycobacterial pathogens; assay: REMA assay of non-Mtb strains; format: cell-based
EsxA = format: cell-based, Mycobacterium tuberculosis
Mtb-Erdman = assay: Growth of Mtb in 7H9 broth; format: cell-based, Mycobacterium tuberculosis; details: 25 μM
[4] = system: Mtb-GFP inside activated THP-1 cells; format: cell-based, Mycobacterium tuberculosis; details: activated THP-1, 10 μM
[5] = system: Mtb-infected THP-1 macrophages; format: cell-based, human
Ag85 complex proteins = format: cell-based, Mycobacterium tuberculosis
THP-1 macrophages = assay: Survival of Mtb-infected activated THP-1 macrophages; format: cell-based, human; details: activated THP-1, higher MOI, 10 μM

Description for GroEL: In brief, 30 ml of bacteria grown to mid-logarithmic phase (OD600 of 0.6 to 0.7) in Sauton's medium supplemented with 0.05% Tween 80 were centrifuged and resuspended in Sauton's medium without Tween. Compounds were added at concentrations as indicated and cells were grown further at 37° C. with shaking for 4 days. Cultures were harvested by centrifugation to obtain culture filtrates and cell pellets. Culture filtrates were concentrated 100-fold in 5-kDa cutoff Vivaspin columns (Sartorius). Cell lysates were prepared by bead beating bacterial pellets in lysis buffer with 100-μm glass beads.
For immunoblot analysis, 5 μg of protein were resolved by SDS-gel electrophoresis and transferred to nitrocellulose membranes. Membranes were blocked with TBS-buffer (3% milk powder) and incubated overnight with the desired primary antibody diluted in TNT-buffer supplemented with 1% BSA fraction V. Membranes were washed with TNT, incubated with the appropriate secondary antibody in TNT-BSA, washed again with TNT, and developed. GroEL2 was used as a lysis control for culture filtrates and as a loading control for cell lysates.

Nc1ncnc2c1ncn2[C@@H]1O[C@H](COP(=O)(O)OP(=O)(O)NP(=O)(O)O)[C@@H](O)[C@H]1O [AMP-PNP]
MprB auto-phosphorylation (MprB; 1 mM): no effect | phosphohistidine signal of MprB (MprB; 10 mM): only incomplete reduction

NC(=O)c1c(NC(=O)C2CC2)sc2cc(O)c(Br)cc12 [BTP15, 5 -Bromo-2-(cyclopropanecarbonyl-amino)-6-hydroxy-benzo[b]thiophene-3-carboxylic acid amide]
mycobacterial ATP levels (ATP-levels of Mtb): no impact | EtBr accumulation and fluorescence [1]: not observed | GFP fluorescence of Mtb in infected fibroblasts [2]: comparable to the untreated control | IC50 (MRC-5 lung fibroblasts): 1200 nM | Activity (ESX-1): 92% | significantly downregulated genes (number) (Mtb transcriptome; RNA-seq, 5 μM): 18 genes | differentially regulated genes (number) (Mtb transcriptome; RNA-seq, 5 μM, 8 hours): 35 genes | differential regulation (upregulation) of espA (Mtb transcriptome; qRT-PCR): > 2 fold | downregulation of DosR/MprAB associated genes (Mtb transcriptome; qRT-PCR): > 1.5 fold | mprA expression (Mtb transcriptome; qRT-PCR, after 24 and 48 hours of drug treatment): significantly down-regulated | MprB auto-phosphorylation (MprB): dose-dependent inhibition | MIC99 [3]: > 100 µM | EsxA secretion (EsxA): dose-dependent secretion inhibition | EsxA secretion (EsxA; 20 μM): blocked EsxA secretion fully | growth inhibition of Mtb (Mtb-Erdman): no growth inhibition | intracellular bacterial load [4]: greatly reduced the intracellular bacterial load | rate of bacteria in acidic compartments (Lysotracker Red co-localization) [5]: significantly higher rate | GroEL in the culture filtrate (cell lysis) (GroEL; BBH7 and BTP15 treatment): not observed | Ag85 secretion (Ag85 complex proteins; 20 μM): reduced Ag85 secretion | Ag85 secretion (Ag85 complex proteins; concentrations ≦10 μM): only slightly affected at best | protection of THP-1 cells from Mtb-induced cell death (THP-1 macrophages): protected THP-1 cells from Mtb-induced cell death

CSC(=S)N/N=C(\C)c1ccc(OCc2cccc(Cl)c2)cc1 [D22646]
Activity (ESX-1): 76%

CSC(=S)N/N=C(\C)c1ccc(OCc2ccc([N+](=O)[O-])cc2)cc1 [D22647]
Activity (ESX-1): 30%

COc1ccc([N+](=O)[O-])cc1COc1ccc(/C(C)=N/NC(=S)SC)cc1 [D22648]
Activity (ESX-1): 65%

CSC(=S)N/N=C(\C)c1ccc(OCc2cccc([N+](=O)[O-])c2)cc1 [D22663]
Activity (ESX-1): 47%

CSC(=S)N/N=C(\C)c1ccc(OCc2cccc(Br)c2)cc1 [D22670]
Activity (ESX-1): 67%

CSC(=S)N/N=C(\C)c1ccc(OCc2ccc(Br)cc2)cc1 [D22671]
Activity (ESX-1): 51%

CSC(=S)N/N=C(\C)c1ccc(OCc2cccc(F)c2)cc1 [D22672]
Activity (ESX-1): 94%

C/C(=N\NC(=S)Nc1ccc(F)c(Cl)c1)c1ccc(OCc2ccccc2)cc1 [D23251]
Activity (ESX-1): 34%

C/C(=N\NC(=S)Nc1cccc(Cl)c1Cl)c1ccc(OCc2ccccc2)cc1 [D23579]
Activity (ESX-1): 75%

CSc1ccc(NC(=O)Nc2sc3cc(O)ccc3c2C(N)=O)cc1 [D38979]
Activity (ESX-1): 60%

CC(C)c1ccc(NC(=O)Nc2sc3cc(O)ccc3c2C(N)=O)cc1 [D39317]
Activity (ESX-1): 33%

NC(=O)c1c(NC(=O)Nc2cccc(C(F)(F)F)c2)sc2cc(O)ccc12 [D39321]
Activity (ESX-1): 45%

NC(=O)c1c(NC(=O)Nc2cccc(Cl)c2)sc2cc(O)ccc12 [D39322]
Activity (ESX-1): 40%

COc1ccc(CNCC(O)COc2ccc3c(C(N)=O)c(NC(=O)C4CC4)sc3c2)cc1 (stereo not drawn) [D45756]
Activity (ESX-1): 32%

NC(=O)c1c(NC(=O)Nc2ccc(F)c(Cl)c2)sc2c(Cl)c(O)c(Cl)cc12 [D49399]
Activity (ESX-1): 33%

CC(=O)Oc1c(Cl)cc2c(C(N)=O)c(NC(=O)Nc3ccc(C(C)C)cc3)sc2c1Cl [D51275]
Activity (ESX-1): 41%

COC(=O)c1cccc(NC(=O)Nc2sc3c(Cl)c(OC(C)=O)c(Cl)cc3c2C(N)=O)c1 [D58298]
Activity (ESX-1): 33%

CC(=O)Oc1c(Cl)cc2c(C(N)=O)c(NC(=O)Nc3cccc(CN(C)C)c3)sc2c1Cl [D58845]
Activity (ESX-1): 87%

CNC(=O)Nc1sc2c(Cl)c(O)c(Cl)cc2c1C(N)=O [D60166]
Activity (ESX-1): 55%

CNC(=O)Nc1sc2c(C(C)C)cc(N)cc2c1C(N)=O [D63134]
Activity (ESX-1): 26%

NC(=O)Nc1sc2cc(O)c(Br)cc2c1C(N)=O [D70865]
Activity (ESX-1): 77%

CC(=O)Oc1cc2sc(NC(=O)C3CC3)c(C(N)=O)c2cc1Br [D70866]
Activity (ESX-1): 80%

CC(=O)Oc1cc2sc(NC(N)=O)c(C(N)=O)c2cc1Br [D71014]
Activity (ESX-1): 90%

NNC(=O)c1ccncc1 [Isoniazid, reference compound]
EsxA secretion (EsxA; 0.5× MIC): no effect | GroEL in the culture filtrate (cell lysis) (GroEL; 5× MIC): cell lysis

[Cu] [copper]
EsxA secretion (EsxA; elevated concentrations of copper): no effect

CC[C@@H](CO)NCCN[C@@H](CC)CO [ethambutol, reference compound]
EsxA secretion (EsxA; 0.5× MIC): no effect | GroEL in the culture filtrate (cell lysis) (GroEL; 5× MIC): cell lysis

CCc1cc(C(N)=S)ccn1 [ethionamide, reference compound]
EsxA secretion (EsxA): no effect | GroEL in the culture filtrate (cell lysis) (GroEL; 5× MIC): cell lysis

CC(=O)Nc1ccc(/C=N/NC(N)=S)cc1 [thiacetazone, reference compound]
EsxA secretion (EsxA; 0.5× MIC): no effect | GroEL in the culture filtrate (cell lysis) (GroEL; 5× MIC): cell lysis

O=S(=O)([O-])[O-].[Zn+2] [zinc, ZnSO4]
secretion of EsxA (EsxA; 500 μM zinc): sixfold increase | Ag85 secretion (Ag85 complex proteins; media containing elevated levels of ZnSO4): remained unchanged
